Source: patent US11053204B2, “Pyrimidinyloxy benzene derivatives as herbicides” (FMC Corporation, priority 2015, dated 2021)

What was measured:
Type in all cases: in vivo
[1] = system: Italian ryegrass (Lolium multiflorum); assay: Test A preemergence, visual injury rating; settings: for Ryegrass, Italian plant response rating: 0 to 100 scale (0 no effect, 100 complete control)
Method in brief: (§1)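 Visual 0–100 rating (100 = complete control) taken about 10 d post-treatment relative to untreated checks. Preemergence: directed soil spray on sown loam/sand pots. Postemergence: seedlings 2–10 cm, 1–2 leaf. Non-phytotoxic solvent formulation with surfactant.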

[2] = system: barnyardgrass (Echinochloa crus-galli); assay: Test A preemergence, visual injury rating; settings: for Barnyardgrass plant response rating: 0 to 100 scale (0 no effect, 100 complete control)
Method in brief: as §1

[3] = system: giant foxtail (Setaria faberii); assay: Test A preemergence, visual injury rating; settings: for Foxtail, Giant plant response rating: 0 to 100 scale (0 no effect, 100 complete control)
Method in brief: as §1

[4] = system: kochia (Kochia scoparia); assay: Test A preemergence, visual injury rating; settings: for Kochia plant response rating: 0 to 100 scale (0 no effect, 100 complete control)
Method in brief: as §1

[5] = system: pigweed (Amaranthus retroflexus); assay: Test A preemergence, visual injury rating; settings: for Pigweed plant response rating: 0 to 100 scale (0 no effect, 100 complete control)
Method in brief: as §1

[6] = system: ragweed (common ragweed, Ambrosia elatior); assay: Test A preemergence, visual injury rating; settings: for Ragweed plant response rating: 0 to 100 scale (0 no effect, 100 complete control)
Method in brief: as §1

[7] = system: Italian ryegrass (Lolium multiflorum); assay: Test A postemergence, visual injury rating; settings: 0 is no effect, 100 is complete control
Method in brief: as §1

[8] = system: barnyardgrass (Echinochloa crus-galli); assay: Test A postemergence, visual injury rating; settings: 0 is no effect, 100 is complete control
Method in brief: as §1

[9] = system: blackgrass (Alopecurus myosuroides); assay: Test A postemergence, visual injury rating; settings: 0 is no effect, 100 is complete control
Method in brief: as §1

[10] = system: corn (Zea mays); assay: Test A postemergence, visual injury rating; settings: 0 is no effect, 100 is complete control
Method in brief: as §1

[11] = system: galium (catchweed bedstraw, Galium aparine); assay: Test A postemergence, visual injury rating; settings: 0 is no effect, 100 is complete control
Method in brief: as §1

[12] = system: giant foxtail (Setaria faberii); assay: Test A postemergence, visual injury rating; settings: 0 is no effect, 100 is complete control
Method in brief: as §1

[13] = system: kochia (Kochia scoparia); assay: Test A postemergence, visual injury rating; settings: 0 is no effect, 100 is complete control
Method in brief: as §1

[14] = system: pigweed (Amaranthus retroflexus); assay: Test A postemergence, visual injury rating; settings: 0 is no effect, 100 is complete control
Method in brief: as §1

[15] = system: ragweed (common ragweed, Ambrosia elatior); assay: Test A postemergence, visual injury rating; settings: 0 is no effect, 100 is complete control
Method in brief: as §1

[16] = system: wheat (Triticum aestivum); assay: Test A postemergence, visual injury rating; settings: 0 is no effect, 100 is complete control
Method in brief: as §1

[17] = system: barnyardgrass (Echinochloa crus-galli); assay: Test B flooded paddy test, plant response rating; settings: 250 g ai/ha; Flood; scale of 0 to 100 where 0 is no effect and 100 is complete control; 13 to 15 days
Method in brief: (§2)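 Flooded 3 cm over soil; compound into paddy water; depth kept constant. Greenhouse 13–15 d.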

[18] = system: ducksalad (Heteranthera limosa); assay: Test B flooded paddy test, plant response rating; settings: 250 g ai/ha; Flood; scale of 0 to 100 where 0 is no effect and 100 is complete control; 13 to 15 days
Method in brief: as §2

[19] = system: rice (Oryza sativa); assay: Test B flooded paddy test, plant response rating; settings: 250 g ai/ha; Flood; scale of 0 to 100 where 0 is no effect and 100 is complete control; 13 to 15 days
Method in brief: as §2

[20] = system: sedge, umbrella (small-flower umbrella sedge, Cyperus difformis); assay: Test B flooded paddy test, plant response rating; settings: 250 g ai/ha; Flood; scale of 0 to 100 where 0 is no effect and 100 is complete control; 13 to 15 days
Method in brief: as §2

[21] = 31 g ai/ha, 0 to 100 scale, 0 no effect, 100 complete control
[22] = 31 g ai/ha, 0 to 100 scale, approximately 10 days

Structure (SMILES)	Ryegrass, Italian plant response rating ([1]; 125 g ai/ha)	Barnyardgrass plant response rating ([2]; 125 g ai/ha)	Foxtail, Giant plant response rating ([3]; 125 g ai/ha)	Kochia plant response rating ([4]; 125 g ai/ha)	Pigweed plant response rating ([5]; 125 g ai/ha)	Ragweed plant response rating ([6]; 125 g ai/ha)	Ryegrass, Italian plant response rating (0 to 100 scale) ([7]; 125 g ai/ha)	Barnyardgrass plant response rating (0 to 100 scale) ([8]; 125 g ai/ha)	Blackgrass plant response rating (0 to 100 scale) ([9]; 125 g ai/ha)	Corn plant response rating (0 to 100 scale) ([10]; 125 g ai/ha)	Galium plant response rating (0 to 100 scale) ([11]; 125 g ai/ha)	Foxtail, Giant plant response rating (0 to 100 scale) ([12]; 125 g ai/ha)	Kochia plant response rating (0 to 100 scale) ([13]; 125 g ai/ha)	Pigweed plant response rating (0 to 100 scale) ([14]; 125 g ai/ha)	Ragweed plant response rating (0 to 100 scale) ([15]; 125 g ai/ha)	Wheat plant response rating (0 to 100 scale) ([16]; 125 g ai/ha)	Plant response rating, Barnyardgrass [17]	Plant response rating, Ducksalad [18]	Plant response rating, Rice [19]	Plant response rating, Sedge, Umbrella [20]	other results
O=C(OC1CCCC1)c1c(Br)cccc1Oc1ncc(Cl)cn1 [Compound 44]	0	0	40	0	0	0	0	0	0	0	0	0	0	0	0	0	0	0	0	30	Plant response rating, Ryegrass, Italian [1, 21]: 0; Plant response rating, Barnyardgrass [2, 21]: 0; Plant response rating, Foxtail, Giant [3, 21]: 0; Plant response rating, Kochia [4, 21]: 0; Plant response rating, Pigweed [5, 21]: 0; Plant response rating, Ragweed [6, 21]: 0; Ryegrass, Italian plant response rating [7, 22]: 0; Barnyardgrass plant response rating [8, 22]: 0; Blackgrass plant response rating [9, 22]: 0; Corn plant response rating [10, 22]: 0; Galium plant response rating [11, 22]: 0; Foxtail, Giant plant response rating [12, 22]: 0; Kochia plant response rating [13, 22]: 0; Pigweed plant response rating [14, 22]: 0; Ragweed plant response rating [15, 22]: 0; Wheat plant response rating [16, 22]: 0
O=C(OCC(F)(F)F)c1c(F)cccc1Oc1ncc(Cl)cn1 [Compound 48]	0	0	0	0	0	0	0	0	0	0	0	0	0	20	0	0	20	0	20	0	Ryegrass, Italian plant response rating ([1]; 500 g ai/ha): 0; Barnyardgrass plant response rating ([2]; 500 g ai/ha): 10; Foxtail, Giant plant response rating ([3]; 500 g ai/ha): 10; Kochia plant response rating ([4]; 500 g ai/ha): 0; Pigweed plant response rating ([5]; 500 g ai/ha): 0; Ragweed plant response rating ([6]; 500 g ai/ha): 0; Ryegrass, Italian plant response rating (0 to 100 scale) ([7]; 500 g ai/ha): 0; Barnyardgrass plant response rating (0 to 100 scale) ([8]; 500 g ai/ha): 30; Blackgrass plant response rating (0 to 100 scale) ([9]; 500 g ai/ha): 20; Corn plant response rating (0 to 100 scale) ([10]; 500 g ai/ha): 0; Galium plant response rating (0 to 100 scale) ([11]; 500 g ai/ha): 10; Foxtail, Giant plant response rating (0 to 100 scale) ([12]; 500 g ai/ha): 20; Kochia plant response rating (0 to 100 scale) ([13]; 500 g ai/ha): 0; Pigweed plant response rating (0 to 100 scale) ([14]; 500 g ai/ha): 40; Ragweed plant response rating (0 to 100 scale) ([15]; 500 g ai/ha): 0; Wheat plant response rating (0 to 100 scale) ([16]; 500 g ai/ha): 0
